The subject of assay [1] is P. acnes NCTC 737. Briefly: Disc diffusion assay (DDA), also supplemented. (A growth-free zone around the sample is the usual read-out of agar diffusion tests.)
Description: (§6) The propionibacteria were cultured and maintained on Wilkins-Chalgren Anaerobe Medium (agar and broth) at pH 6.0; all cultures were incubated anaerobically at 37° C. for 72 hours.
(d) Disc Diffusion Assay (DDA)
(§7) A sterile paper disc was impregnated with a sample of the test compound in a suitable solvent and 30 minutes allowed for the solvents to evaporate (where possible). The disc was then placed on an agar plate onto which the test micro-organism had been inoculated. The plate was then incubated under the conditions described above, following which it was examined visually for signs of bacterial growth. […] The diameter of this zone of “inhibition” was measured using a ProtoCOL™ automated zone sizer (Synbiosis, Cambridge, UK).
(f) Supplemented Disc Diffusion Assays
(§8) For assays using Propionibacterium spp. strains the supplements used in the examples below were lipid (either Tween™ 80 or triolein, both at 1% v/v) and sodium chloride (100 mM).
In assay [2] the test system is S. aureus ATCC 29213. Briefly: Disc diffusion assay (DDA), also supplemented.
Description: The staphylococci were cultured and maintained on Mueller-Hinton Medium (agar and broth) at pH 7.2; cultures were incubated aerobically at 37° C. for 19-20 hours.
(d) Disc Diffusion Assay (DDA)
as §7
(f) Supplemented Disc Diffusion Assays
For assays using S. aureus ATCC 29213 the supplements used were sodium chloride (100 mM), lipid (Tween™ 80 at 1% v/v) and horse serum (5% v/v).
The subject of assay [3] is P. acnes NCTC 737. Briefly: Synergy disc diffusion assay (SDDA), also supplemented.
Description: as §6
(e) Synergy Disc Diffusion Assay (SDDA)
This is a variation on the DDA method, in which two compounds are tested together for their combined antimicrobial activity.
Two test compounds A and B were placed on a single paper disc and the above described DDA procedure repeated.
(f) Supplemented Disc Diffusion Assays
as §8
The test system of assay [4] is S. aureus ATCC 29213. The description is as above.
The subject of assay [5] is P. acnes NCTC 737. Briefly: Minimum inhibitory concentration (MIC) assay. The assay is classed as cell-based, Propionibacterium acnes. The source says:
(§1) (a) Minimum Inhibitory Concentration (MIC) Assay
(§2) The culture media were as described above.
(§3) The assays included both negative (culture medium with no micro-organisms) and positive (culture medium plus diluting solvent plus micro-organism) controls.

Assay [6] has as its system P. acnes NCTC 737. Briefly: Minimum bactericidal concentration (MBC) assay. The assay is classed as cell-based, Propionibacterium acnes. How it is done: (§4) (b) Minimum Bactericidal Concentration (MBC) Assay
(§5) Following incubation they were examined visually for bacterial growth.

Assay [7] has as its system S. aureus ATCC 29213. Briefly: Minimum inhibitory concentration (MIC) assay. The assay is classed as cell-based, Staphylococcus aureus.
From the text: as §1, §2, §3

Assay [8] deals with S. aureus ATCC 29213. Briefly: Minimum bactericidal concentration (MBC) assay. The assay is classed as cell-based, Staphylococcus aureus. On the procedure:
as §4, §5

The mark [9] stands for this setting: quinone + CSL, salt and lipid (1% (v/v) triolein).
[10] abbreviates: quinone + CSPH, salt and lipid (1% (v/v) triolein).
Where [11] appears, read: quinone + CSL, salt and serum supplements.
[12] abbreviates: quinone + CSPH, salt and serum supplements.
Where [13] appears, read: copper salt alone, P. acnes NCTC 737.
[14] abbreviates: copper salt alone, S. aureus ATCC 29213.
The mark [15] stands for this setting: copper salt alone, 200 μg per disc (silicate 62 μg), sodium chloride (100 mM).
Setting [16] is: copper salt + TBHQ on one disc, 200 μg of each (silicate 62 μg), unsupplemented.
Setting [17] is: copper salt + TBHQ vs larger zone of either compound alone, unsupplemented.
[18] abbreviates: copper salt + TBHQ, salt and lipid (1% (v/v) Tween 80).
Setting [19] is: copper salt + TBHQ, unsupplemented.
Setting [20] is: copper salt + TBHQ, salt and serum supplements.

Read-outs that look alike come from different tables or passages of the source.

The source of these data is patent publication US20090246292A1, “ANTIMICROBIAL FORMULATIONS COMPRISING A QUINONE AND A COPPER SALT” (priority 2006, published 2009).

In general, MBC refers to the smallest concentration meeting the test's criterion for killing.
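Wherever DDA + salt & lipid is given: paper disc carrying compound placed on inoculated Wilkins-Chalgren Anaerobe agar pH 6.0, with lipid or NaCl supplement where listed, anaerobic 37 °C for 72 h, inhibition zone diameter read.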
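Wherever SL (S)DDA is given: paper disc carrying compound placed on inoculated Wilkins-Chalgren Anaerobe agar pH 6.0, with lipid or NaCl supplement where listed, anaerobic 37 °C for 72 h, inhibition zone diameter read.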
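Wherever SS SDDA area increase is given: disc diffusion on Mueller-Hinton agar at pH 7.2, aerobic incubation at 37 °C lasting 19-20 h, two compounds assessed jointly for combined antimicrobial effect.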
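Wherever SS SDDA increase is given: disc diffusion on Mueller-Hinton agar at pH 7.2, aerobic incubation at 37 °C lasting 19-20 h, two compounds assessed jointly for combined antimicrobial effect.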
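Wherever SS SDDA with CSL is given: disc diffusion on Mueller-Hinton agar at pH 7.2, aerobic incubation at 37 °C lasting 19-20 h, two compounds assessed jointly for combined antimicrobial effect.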
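Wherever SS SDDA with CSPH is given: disc diffusion on Mueller-Hinton agar at pH 7.2, aerobic incubation at 37 °C lasting 19-20 h, two compounds assessed jointly for combined antimicrobial effect.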

As for `Cc1cc(O)ccc1O` [2-methyl-p-hydroquinone], the “DDA + salt & lipid” value with P. acnes NCTC 737 [1] (Example 8, single compound, salt and 1% (v/v) triolein) was 35.18 (±4.06) mm. In addition, in the assay on S. aureus ATCC 29213 [2] (Example 9, single compound, salt and serum), the “DDA + salt & serum” value is reported as 26.91 (±0.00) mm. In the assay on P. acnes NCTC 737 [3] (setting [9]), the “SL SDDA area increase” value is listed as 35.49%, the “SL SDDA increase” value came out at 6.98 mm and the “SL SDDA with CSL” value was 49.54 (±0.81) mm. In addition, in the assay with P. acnes NCTC 737 [3] (quinone + CSL, unsupplemented), the SDDA area increase is 24.46% and the SDDA increase was 4.72 mm. Further, in the assay on P. acnes NCTC 737 [3] (setting [10]), the “SL SDDA area increase” value was 17.67%, the “SL SDDA increase” value was determined as 4.20 mm and the “SL SDDA with CSPH” value is on record as 53.74 (±1.75) mm. Further, in the assay with P. acnes NCTC 737 [3] (quinone + CSPH, unsupplemented), the SDDA area increase is recorded as 24.24% and the SDDA increase is 4.82 mm. In the assay with S. aureus ATCC 29213 [4] (setting [11]), the “SS SDDA area increase” value came to 90.18%, the “SS SDDA increase” value was 10.20 mm and the “SS SDDA with CSL” value is listed as 37.11 (±1.11) mm. In the assay on S. aureus ATCC 29213 [4] (quinone + CSL, unsupplemented), the SDDA area increase is 112.09% and the SDDA increase is on record as 11.76 mm. For the same compound, in the assay on S. aureus ATCC 29213 [4] (setting [12]), the “SS SDDA area increase” value is 74.72%, the “SS SDDA increase” value is given as 8.66 mm and the “SS SDDA with CSPH” value is given as 35.57 (±0.62) mm. Further, in the assay on S. aureus ATCC 29213 [4] (quinone + CSPH, unsupplemented), the SDDA area increase came to 140.93% and the SDDA increase is listed as 14.23 mm.

For `CC(=O)[O-].[Cu+]` [Copper (I) acetate], in the assay on P. acnes NCTC 737 [5], the MIC amounted to 7.8 µg/mL and the MIC/MBC ratio amounted to 0.25. The compound also had a minimum bactericidal concentration (MBC) against P. acnes NCTC 737 [6] of 31.25 µg/mL. In the assay with S. aureus ATCC 29213 [7], this compound registered an MIC above 250 µg/mL. This compound returned an MBC with S. aureus ATCC 29213 [8] above 250 µg/mL. For the same compound, in the assay with P. acnes NCTC 737 [1], the DDA turned out to be 52.04 mm, the “DDA + lipid” value is recorded as 45.46 mm, the “DDA + salt” value is recorded as 49.48 mm and the “DDA + salt & lipid” value was 52.15 mm. In the assay with S. aureus ATCC 29213 [2], the DDA came out at 0 mm, the “DDA + lipid” value came out at 0 mm, the “DDA + salt” value came to 0 mm and the “DDA + salt & serum” value was found to be 0 mm. Moreover, in the assay on P. acnes NCTC 737 [3], the SDDA area increase amounted to 84.62%, the SDDA increase was found to be 18.67 mm, the “SDDA with TBHQ” value came out at 70.71 mm and the “SL SDDA area increase” value amounted to 59.77%. Moreover, in the assay with P. acnes NCTC 737 [3], the “SL SDDA increase” value worked out at 13.77 mm and the “SL SDDA with TBHQ” value was 65.91 mm. Moreover, in the assay on S. aureus ATCC 29213 [4], the SDDA area increase stood at 16.25%, the SDDA increase was determined as 3.16 mm, the “SDDA with TBHQ” value is recorded as 43.58 mm and the “SS SDDA area increase” value is given as −51.82%. In the assay with S. aureus ATCC 29213 [4], the “SS SDDA increase” value is on record as −13.36 mm and the “SS SDDA with TBHQ” value came out at 30.32 mm.

Regarding `[Cu][Br]` [Copper (I) bromide], the MIC was 15.6 µg/mL with P. acnes NCTC 737 [5] (setting [13]) and above 250 µg/mL in the assay on S. aureus ATCC 29213 [7] (setting [14]). Further, the MIC/MBC ratio with P. acnes NCTC 737 [5] (setting [13]) was found to be 0.125. Further, the MBC with P. acnes NCTC 737 [6] (setting [13]) was 125 µg/mL; in the assay with S. aureus ATCC 29213 [8] (setting [14]) it was above 250 µg/mL. Also, the “DDA + lipid” value in the assay with P. acnes NCTC 737 [1] (copper salt alone, 200 μg per disc (silicate 62 μg), 1% (v/v) Tween 80) is 43.92 mm; with S. aureus ATCC 29213 [2] (copper salt alone, 200 μg per disc (silicate 62 μg), Tween 80 at 1% v/v) it was 0 mm. The “DDA + salt & lipid” value in the assay with P. acnes NCTC 737 [1] (copper salt alone, 200 μg per disc (silicate 62 μg), salt and 1% (v/v) Tween 80) stood at 43.70 mm. In addition, the “DDA + salt” value in the assay on P. acnes NCTC 737 [1] (setting [15]) amounted to 29.38 mm; in the assay with S. aureus ATCC 29213 [2] (setting [15]), 0 mm. In addition, in the assay with S. aureus ATCC 29213 [2] (copper salt alone, 200 μg per disc (silicate 62 μg), salt and horse serum (5% v/v)), the “DDA + salt & serum” value was determined as 0 mm. For the same compound, the “SL SDDA with TBHQ” value with P. acnes NCTC 737 [3] (copper salt + TBHQ on one disc, 200 μg of each (silicate 62 μg), salt and lipid (1% (v/v) Tween 80)) stood at 56.01 mm. Further, the results for the “SDDA with TBHQ” value in the assay on P. acnes NCTC 737 [3] (setting [16]) and in the assay on S. aureus ATCC 29213 [4] (setting [16]) were 54.65 mm and 55.37 mm, respectively. The SDDA increase in the assay with P. acnes NCTC 737 [3] (setting [17]) is recorded as 15.44 mm; with S. aureus ATCC 29213 [4] (setting [17]), 14.95 mm. The “SL SDDA area increase” value in the assay on P. acnes NCTC 737 [3] (setting [18]) came to 64.26%. Moreover, the “SL SDDA increase” value with P. acnes NCTC 737 [3] (setting [18]) worked out at 12.31 mm. For the same compound, the values for the SDDA area increase in the assay on P. acnes NCTC 737 [3] (setting [19]) and with S. aureus ATCC 29213 [4] (setting [19]) were 94.26% and 87.65%, respectively. Also, the “SS SDDA with TBHQ” value with S. aureus ATCC 29213 [4] (copper salt + TBHQ on one disc, 200 μg of each (silicate 62 μg), salt and serum supplements) was found to be 46.42 mm. Besides, in the assay with S. aureus ATCC 29213 [4] (setting [20]), the “SS SDDA area increase” value came to 12.94%. The “SS SDDA increase” value in the assay with S. aureus ATCC 29213 [4] (setting [20]) came to 2.74 mm.

For the compound `O=S(=O)([O-])[O-].[Cu+2]` [Copper (II) sulphate, copper (II) sulphate], in the assay with P. acnes NCTC 737 [5], the MIC was found to be 15.6 µg/mL and the MIC/MBC ratio stood at 0.5. In the assay with P. acnes NCTC 737 [6], the MBC amounted to 31.25 µg/mL. Further, in the assay on S. aureus ATCC 29213 [7], the MIC is recorded as 1000 μml and the MIC/MBC ratio was determined as 1. In the assay on S. aureus ATCC 29213 [8], the MBC is 1000 µg/mL. In the assay on P. acnes NCTC 737 [1], the “(S)DDA” value was 51.73 (±1.48) mm and the “SL (S)DDA” value is reported as 51.10 (±3.17) mm. For the same compound, in the assay with S. aureus ATCC 29213 [2], the “(S)DDA” value worked out at 0 mm, the “SS (S)DDA” value stood at 0 mm and the “activity of copper salt alone (in words)” value was “inactive”.
